Measurements as given in the supplement of paper PMC11451515.

Tested on: NOMO1
Experiment: cell viability relative to DMSO control; higher = less cytotoxic
Conditions: 48 h
Procedure, shortened: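 Before seeding, each leukemia line was adapted for at least four passages in each medium. NOMO1 or SEM cells (500 cells/well) and P12-Ichikawa cells (1000 cells/well) went into 1536-well plates at 5 μl, then received library compounds in DMSO by pin dosing across 11 threefold concentrations, 47 μM to 0.79 nM. Readout was CellTiter-Glo One luminescence after 48 h at 37°C, and viability is given as a per-plate percentage of DMSO wells, with cell-free wells as background.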

[1] = HPLM + 10% dialyzed FBS, 0.000781 µM
[2] = HPLM + 10% dialyzed FBS, 0.00234 µM
[3] = HPLM + 10% dialyzed FBS, 0.00702 µM
[4] = HPLM + 10% dialyzed FBS, 0.0211 µM
[5] = HPLM + 10% dialyzed FBS, 0.0632 µM
[6] = HPLM + 10% dialyzed FBS, 0.19 µM
[7] = HPLM + 10% dialyzed FBS, 0.569 µM
[8] = HPLM + 10% dialyzed FBS, 1.71 µM
[9] = HPLM + 10% dialyzed FBS, 5.12 µM
[10] = HPLM + 10% dialyzed FBS, 15.4 µM
[11] = HPLM + 10% dialyzed FBS, 46.1 µM
[12] = RPMI 5 mM glucose + 10% FBS, 0.000781 µM
[13] = RPMI 5 mM glucose + 10% FBS, 0.00234 µM
[14] = RPMI 5 mM glucose + 10% FBS, 0.00702 µM
[15] = RPMI 5 mM glucose + 10% FBS, 0.0211 µM
[16] = RPMI 5 mM glucose + 10% FBS, 0.0632 µM
[17] = RPMI 5 mM glucose + 10% FBS, 0.19 µM
[18] = RPMI 5 mM glucose + 10% FBS, 0.569 µM
[19] = RPMI 5 mM glucose + 10% FBS, 1.71 µM
[20] = RPMI 5 mM glucose + 10% FBS, 5.12 µM
[21] = RPMI 5 mM glucose + 10% FBS, 15.4 µM
[22] = RPMI 5 mM glucose + 10% FBS, 46.1 µM
[23] = RPMI 5 mM glucose + 10% dialyzed FBS, 0.000781 µM
[24] = RPMI 5 mM glucose + 10% dialyzed FBS, 0.00234 µM
[25] = RPMI 5 mM glucose + 10% dialyzed FBS, 0.00702 µM
[26] = RPMI 5 mM glucose + 10% dialyzed FBS, 0.0211 µM
[27] = RPMI 5 mM glucose + 10% dialyzed FBS, 0.0632 µM
[28] = RPMI 5 mM glucose + 10% dialyzed FBS, 0.19 µM
[29] = RPMI 5 mM glucose + 10% dialyzed FBS, 0.569 µM
[30] = RPMI 5 mM glucose + 10% dialyzed FBS, 1.71 µM
[31] = RPMI 5 mM glucose + 10% dialyzed FBS, 5.12 µM
[32] = RPMI 5 mM glucose + 10% dialyzed FBS, 15.4 µM
[33] = RPMI 5 mM glucose + 10% dialyzed FBS, 46.1 µM

| Structure (SMILES) | cell viability [1] [%] | cell viability [2] [%] | cell viability [3] [%] | cell viability [4] [%] | cell viability [5] [%] | cell viability [6] [%] | cell viability [7] [%] | cell viability [8] [%] | cell viability [9] [%] | cell viability [10] [%] | cell viability [11] [%] | cell viability [12] [%] | cell viability [13] [%] | cell viability [14] [%] | cell viability [15] [%] | cell viability [16] [%] | cell viability [17] [%] | cell viability [18] [%] | cell viability [19] [%] | cell viability [20] [%] | cell viability [21] [%] | cell viability [22] [%] | cell viability [23] [%] | cell viability [24] [%] | cell viability [25] [%] | cell viability [26] [%] | cell viability [27] [%] | cell viability [28] [%] | cell viability [29] [%] | cell viability [30] [%] | cell viability [31] [%] | cell viability [32] [%] | cell viability [33] [%] |
| --- | --- | --- | --- | --- | --- | --- | --- | --- | --- | --- | --- | --- | --- | --- | --- | --- | --- | --- | --- | --- | --- | --- | --- | --- | --- | --- | --- | --- | --- | --- | --- | --- | --- |
| Cc1cc(OCCC[S+](C)(=O)[O-])cc(C)c1-c1cccc(COc2ccc3c(c2)OC[C@H]3CC(=O)O)c1 | 93.7 | 112 | 98.7 | 91.3 | 108 | 97.8 | 103 | 89.9 | 106 | 92.8 | 67.1 | 96.9 | 95 | 99.2 | 102 | 92.4 | 99.2 | 107 | 100 | 98 | 90.6 | 57.3 | 99.2 | 96.7 | 95.9 | 98.4 | 96.1 | 92.6 | 93.7 | 86.4 | 85.3 | 89.3 | 47.1 |
| O=C(O)CCCCC(CCSCc1ccccc1)SCc1ccccc1 (stereo not given) | 109 | 104 | 105 | 117 | 124 | 115 | 118 | 135 | 110 | 86 | 28.7 | 108 | 112 | 115 | 113 | 121 | 114 | 107 | 102 | 109 | 100 | 39.1 | 122 | 116 | 124 | 123 | 120 | 134 | 131 | 129 | 112 | 99.9 | 55.5 |
| CC(C)=CCC/C(C)=C/CC/C(C)=C/CSc1ccccc1C(=O)O | 93.2 | 119 | 104 | 104 | 116 | 102 | 90.4 | 68.8 | 76.4 | 57.4 | 29.8 | 103 | – | 104 | 103 | 96.1 | 99.1 | 96.2 | 95.2 | 86.8 | 67.9 | 43.5 | 98.2 | 103 | 109 | 106 | 116 | 97 | 87 | 77.1 | 61.8 | 64 | 39.3 |
| CC(C)(F)C[C@H](N[C@@H](c1ccc(-c2ccc([S+](C)(=O)[O-])cc2)cc1)C(F)(F)F)C(=O)NC1(C#N)CC1 | 91.5 | 113 | 111 | 113 | 108 | 103 | 107 | 116 | 111 | 94.6 | 89.8 | 124 | 136 | 125 | 124 | 119 | 116 | 109 | 115 | 106 | 97.5 | 102 | 105 | 125 | 117 | 121 | 103 | 108 | 112 | 109 | 101 | 101 | 92.3 |
| CCN(CCO)CCCOc1ccc2c(Nc3cc(CC(=O)Nc4cccc(F)c4)[nH]n3)ncnc2c1 | 110 | 128 | 102 | 114 | 106 | 85.7 | 82.7 | 76.2 | 77.8 | 81.6 | 45.1 | 113 | 105 | 120 | 113 | 98.5 | 65.6 | 50.5 | 44.7 | 40.9 | 54.1 | 54 | 110 | 110 | 105 | 111 | 104 | 63.8 | 52.6 | 50.2 | 51.7 | 56.9 | 80.6 |
| CCN1\C=C(\C(O)=O)C(=O)C2=C1N=C(N3CCNCC3)C(=C2)F | 74.8 | 73.4 | 85.3 | 93 | 88.6 | 82.2 | 86.2 | 84.3 | 46 | 42 | 20.3 | 78 | 83.9 | 93 | 83.8 | 81.1 | 85.1 | 79 | 86.4 | 81.4 | 79.1 | 16 | 55.2 | 91 | 81.6 | 82.5 | 79.2 | 74.1 | 82.6 | 82.5 | 81 | 76.3 | 20.1 |
| O=C1CCC[C@@H]2[C@H]3CCCN4CCC[C@@H](CN12)[C@@H]34 | 59.1 | 68.9 | 78.1 | 87.1 | 87.2 | 94.8 | 38.3 | 93.2 | 26.6 | 25.3 | 13.6 | 79 | 92.2 | 84.6 | 86.8 | 85.2 | 90.9 | 55.3 | 85.2 | 17.2 | 13.9 | 7.48 | 66.1 | 79.6 | 90.2 | 82.9 | 86 | 93.6 | 69.3 | 77.8 | 19.1 | 18.6 | 10.8 |
